In BigSolDB 2.1:

C=CC(=O)NCO
Settings	solubility (mole fraction)
in acetonitrile, 279.15 K	0.0244
in acetonitrile, 282.05 K	0.0276
in acetonitrile, 288.15 K	0.0341
in acetonitrile, 292.75 K	0.041
in acetonitrile, 298.15 K	0.0499
in acetonitrile, 304.05 K	0.0614
in acetonitrile, 308.55 K	0.0716
in chloroform, 279.65 K	0.0011
in chloroform, 282.35 K	0.0013
in chloroform, 286.05 K	0.0015
in chloroform, 289.85 K	0.0019
in chloroform, 294.45 K	0.0023
in chloroform, 299.15 K	0.0029
in chloroform, 303.25 K	0.0035
in dichloromethane, 277.55 K	0.0018
in dichloromethane, 280.35 K	0.0019
in dichloromethane, 282.95 K	0.0021
in dichloromethane, 285.55 K	0.0023
in dichloromethane, 288.15 K	0.0025
in dichloromethane, 291.75 K	0.0028
in ethyl acetate, 278.55 K	0.0109
in ethyl acetate, 281.85 K	0.0127
in ethyl acetate, 285.05 K	0.0146
in ethyl acetate, 289.15 K	0.0176
in ethyl acetate, 296.95 K	0.0248
in ethyl acetate, 300.95 K	0.0294
in ethyl acetate, 305.05 K	0.0351
in furan, 278.55 K	0.0445
in furan, 282.05 K	0.0515
in furan, 284.45 K	0.0574
in furan, 288.25 K	0.0683
in furan, 291.45 K	0.0789
in furan, 294.85 K	0.0919
in furan, 297.25 K	0.102
in n-butyl acetate, 278.05 K	0.0037
in n-butyl acetate, 281.15 K	0.0045
in n-butyl acetate, 284.35 K	0.0055
in n-butyl acetate, 288.95 K	0.0073
in n-butyl acetate, 292.05 K	0.0087
in n-butyl acetate, 295.35 K	0.0105
in n-butyl acetate, 301.45 K	0.0148
in pyridine, 278.55 K	0.232
in pyridine, 281.35 K	0.245
in pyridine, 286.95 K	0.272
in pyridine, 292.25 K	0.303
in pyridine, 297.95 K	0.339
in pyridine, 302.15 K	0.367
in pyridine, 306.25 K	0.401
in toluene, 279.75 K	0.0004
in toluene, 284.35 K	0.0006
in toluene, 287.95 K	0.0008
in toluene, 291.55 K	0.0009
in toluene, 294.95 K	0.0011
in toluene, 298.55 K	0.0014
in toluene, 305.35 K	0.002
